Data as given in PubChem BioAssay (NCI).
Several values for one entry are separate records, joined by “and”; a condition that tells them apart may be missing. Equal values may be shown once.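 Five concentrations, 48 hours, 96-well plates. GI50 is the concentration that inhibits growth by half. TGI is the concentration that stops growth completely.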

Assays:
Assay in all cases: DTP human tumour cell line panel, 48 h
[1] = tested on: SK-MEL-2 melanoma
[2] = tested on: M14 melanoma
[3] = tested on: OVCAR-4 ovarian
[4] = tested on: SW-620 colon
[5] = tested on: SF-295 CNS
[6] = tested on: PC-3 prostate
[7] = tested on: MDA-MB-435
[8] = tested on: U251 CNS
[9] = tested on: SF-539 CNS
[10] = tested on: ACHN renal

Structure (SMILES) | GI50 [1] | TGI [1] | GI50 [2] | TGI [2] | GI50 [3] | TGI [3] | GI50 [4] | TGI [4] | GI50 [5] | TGI [5] | GI50 [6] | TGI [6] | GI50 [7] | TGI [7] | GI50 [8] | TGI [8] | GI50 [9] | TGI [9] | GI50 [10] | TGI [10]
CN(C)c1ncnc2c1ccn2C1OC(CO)C(O)C1O (centres undefined) | > 100 µM | > 100 µM | 16.1 µM | > 100 µM | 2.02 µM | 38.4 µM | 2.55 µM | > 100 µM | 6.48 µM | > 100 µM | 0.477 µM | 11.5 µM | 2.55 µM | > 29.1 µM | > 100 µM | > 100 µM | > 33.5 µM | > 100 µM | 3.18 µM | > 100 µM
CCc1nc(N)nc(N)c1C#CC(C)c1cc(-c2ccnc(C)c2)c2oc(C)nc2c1 (centres undefined) | 1.9 µM | 10.6 µM | < 0.01 µM | 5.69 µM | 4.54 µM | 26.4 µM | < 0.01 µM | 13.2 µM | < 0.01 µM | 6.39 µM | < 0.01 µM | 12.1 µM | < 0.01 µM | 12.3 µM | < 0.01 µM | 11.9 µM | < 0.01 µM | 2.4 µM | < 0.01 µM | 11 µM
c1ccc2c(CN3CCC(C4CCN(Cc5cccc6ccccc56)CC4)CC3)cccc2c1 | – | 15.2 µM and 37.1 µM | – | 3.59 µM and 3.89 µM | 13.6 µM and 35.9 µM | 38.2 µM and > 100 µM | 3.02 µM and 11.4 µM | 9.17 µM and 40.1 µM | – | 19.4 µM and 14.2 µM | – | > 100 µM | – | 11.4 µM | – | 25.5 µM and 47.6 µM | 3.63 µM and 8.99 µM | 9.53 µM and 18 µM | – | > 100 µM
COc1cc(NC(=O)c2cc(O)c(C/C=C(\C)CCC=C(C)C)c(O)c2)cc2c1O[C@]1(C)CC[C@@H](O)C(C)(C)[C@H]1C2 | 1.06 µM | 3.43 µM | 1.48 µM | 4.09 µM | 2.57 µM | 12.7 µM | 2.62 µM | 13.1 µM | 0.306 µM | 1.52 µM | 0.849 µM | 7.16 µM | 2.01 µM | 8.19 µM | 0.724 µM | 5.33 µM | 0.348 µM | 2.38 µM | 2.21 µM | 10.1 µM
COc1ccc2c(c1OC)C(=O)O[C@@H]2[C@H]1c2c(c(Br)c3c(c2OC)OCO3)CCN1C | > 100 µM | > 100 µM | 3.3 µM | 25 µM | > 100 µM | > 100 µM | 5.37 µM | > 100 µM | 10.8 µM | 47.4 µM | 9.11 µM | > 100 µM | 3.55 µM | 29.6 µM | 8.8 µM | > 100 µM | 7.09 µM | > 100 µM | > 100 µM | > 100 µM
Cn1ncnc1C1c2n[nH]c(=O)c3cc(F)cc(c23)NC1c1ccc(F)cc1 (centres undefined) | > 100 µM | > 100 µM | 3.52 µM | > 100 µM | 12.7 µM | > 100 µM | > 41 µM | > 100 µM | 1.01 µM | > 100 µM | > 100 µM | > 100 µM | > 100 µM | > 100 µM | 2.18 µM | > 100 µM | 5.39 µM | > 100 µM | 29.4 µM | > 100 µM
Cc1ccc(-c2c3c(N)c4c(nc3nc3c2c(C)nn3-c2ccccc2)CCC4)cc1 | 21.1 µM | 42.6 µM | 6.25 µM | 20.1 µM | 2.98 µM | 11.9 µM | 2.6 µM | 9.57 µM | 7.45 µM | 21.9 µM | 5.07 µM | 20.9 µM | 17.1 µM | 34.2 µM | 1.95 µM | 4.01 µM | 1.86 µM | 3.46 µM | 3.16 µM | 8.38 µM
Clc1ccc(/C=C/c2nc(Cl)c(-c3ccc(Cl)cc3)c(Cl)n2)cc1 | – | > 100 µM | – | > 100 µM | – | > 100 µM | – | > 100 µM | – | > 100 µM | – | > 100 µM | – | > 100 µM | – | > 100 µM | – | > 100 µM | – | > 100 µM
CN(C)N=Nc1nn(C(=O)Nc2ccc(Cc3ccccc3)cc2)c2ccccc12 | 2.07 µM | > 100 µM | 0.168 µM | > 100 µM | – | > 100 µM | 0.199 µM | > 100 µM | 0.225 µM | 3.12 µM | 4.65 µM | > 100 µM | – | > 100 µM | – | > 100 µM | 1.46 µM | > 23.7 µM | 0.282 µM | > 100 µM
COc1ccc(OC)c(/C=N/N=C2\C(=O)Nc3c(Cl)cc(Cl)cc32)c1 | – | 68.8 µM | – | > 100 µM | – | > 100 µM | – | > 100 µM | – | > 100 µM | – | > 100 µM | – | > 100 µM | – | > 100 µM | – | > 100 µM | – | > 100 µM
COC1OC(C(C)O)C2OC(C)(C)OC12 (centres undefined) | – | > 100 µM | – | > 100 µM | – | > 100 µM | – | > 100 µM | – | > 100 µM | – | > 100 µM | – | > 100 µM | – | > 100 µM | – | > 100 µM | – | > 100 µM
Nc1nc(Cl)nc2c1ncn2[C@@H]1O[C@H](COS(N)(=O)=O)[C@@H](O)[C@H]1O | 0.0185 µM and 0.0195 µM | 0.0437 µM and 0.0429 µM | 0.0186 µM and 0.0192 µM | 0.0421 µM and 0.0375 µM | 0.00303 µM | 0.00929 µM and 0.0324 µM | 0.0256 µM and 0.0312 µM | – | 0.0244 µM and 0.0324 µM | 0.0751 µM and 0.143 µM | 0.0209 µM and 0.0258 µM | 0.0737 µM and 0.08 µM | 0.0171 µM and 0.0176 µM | 0.0327 µM and 0.0341 µM | 0.0222 µM and 0.0231 µM | 0.0658 µM and 0.0663 µM | 0.0217 µM | 0.0563 µM and 0.0533 µM | 0.0257 µM and 0.0252 µM | 0.0778 µM and 0.0657 µM
NS(=O)(=O)c1ccc(N2N=C(c3cccs3)CC2c2ccccc2O)cc1 (centres undefined) | 1.2 µM | 5.16 µM | 1.07 µM | 4.1 µM | 2.88 µM | > 33.3 µM | 1.16 µM | 4.83 µM | 0.829 µM | 2.26 µM | 1.05 µM | 4.38 µM | 0.704 µM | 1.8 µM | 0.998 µM | 3.73 µM | 0.706 µM | 1.76 µM | 2.9 µM | 13 µM
Nc1cc(-c2ccccc2)n(C(=O)Nc2ccc(Oc3ccccc3)cc2)n1 | > 100 µM | > 100 µM | > 100 µM | > 100 µM | 2.91 µM | 27 µM | > 100 µM | > 100 µM | 40.2 µM | > 100 µM | > 100 µM | > 100 µM | > 100 µM | > 100 µM | 32.1 µM | > 100 µM | 30.1 µM | > 100 µM | 34.9 µM | > 100 µM
